In PMC8470702 (Pharmaceuticals, 2021):
“And” between values parts separate entries of the source, which are not always exact repeats. Equal entries are not always repeated.

Legend:
Daudi cells = assay: Cytotoxicity assay (MTT), 72 h; type: cell-based, human; settings: for IC50: Homo sapiens, Daudi, 72 h of treatment, MTT; for Selectivity index Daudi: IC50 of normal (BALB/3T3) vs. cancer cells (Daudi)
Procedure: (§1) Then, the tested compounds were diluted in culture medium (RPMI1640 + OptiMEM) to reach the final concentrations. Then, cells were treated for 72 h with derivatives at concentrations of […] (100 μL of each concentration per well), or with culture medium alone as a cells control or medium control.
(§2) Each compound in each concentration was tested in triplicate in a single experiment, which was repeated 3–5 times.
(§3) MTT: 20 µL MTT solution (5 mg/mL of PBS, Merck) was added to wells and plates were placed in an incubator. […] The optical density of individual samples was read at a wavelength of 570 nm using a plate reader (Synergy H4 Hybrid Reader, BioTek).

MV4-11 cells = assay: Cytotoxicity assay (MTT), 72 h; type: cell-based, human; settings: for IC50: Homo sapiens, MV4-11, 72 h of treatment, MTT; for Selectivity index MV4-11: IC50 of normal (BALB/3T3) vs. cancer cells (MV4-11)
Procedure: as §1, §2, §3

[1] = system: HDAC homologues (HDACs), HeLa cell extract; assay: Fluorimetric HDACs inhibition kit (Histone Deacetylase Activity Assay, HeLa cell extract); settings: for HDAC activity at 2 µM [%]: remaining HDACs activity at 2 µM compound; for IC50: read-out: Inhibition of HDAC homologues (HDACs) IC50
Procedure: The HDACAA kit is based on a two-step enzymatic reaction. The substrate for the reaction is a substituted peptide with an acetylated lysine residue and a bound fluorescent group. The first step of the reaction is deacetylation of the acetylated lysine side chain by the HDAC containing sample (HeLa cell extract). The second step is the cleavage of the deacetylated substrate with the developer solution and the release of the free highly fluorescent group. […] The plate was incubated at 30 °C for 30 min. Next, 10 µL of Developer Solution was added to each well and incubated at room temperature for 10 min. The fluorescence was measured with the fluorimeter plate reader (SpectraMax iD3, Molecular Devices): excitation wavelength of 360 nm and emission wavelength of 460 nm. The following concentrations were used: 0.1, 0.5, 1, and 2 µM. Each compound in each concentration was tested in triplicate. All calculations were performed using Origin 9.0 software.

HDAC8 = molecular target: T1, HDAC8 (Homo sapiens, UniProt Q9BY41); assay: Histone Deacetylase 8 Activity Assay; type: biochemical; settings: read-out: Inhibition of HDAC8 activity IC50
T1 construct: purchased Sigma
T1 sequence (Q9BY41 1-377): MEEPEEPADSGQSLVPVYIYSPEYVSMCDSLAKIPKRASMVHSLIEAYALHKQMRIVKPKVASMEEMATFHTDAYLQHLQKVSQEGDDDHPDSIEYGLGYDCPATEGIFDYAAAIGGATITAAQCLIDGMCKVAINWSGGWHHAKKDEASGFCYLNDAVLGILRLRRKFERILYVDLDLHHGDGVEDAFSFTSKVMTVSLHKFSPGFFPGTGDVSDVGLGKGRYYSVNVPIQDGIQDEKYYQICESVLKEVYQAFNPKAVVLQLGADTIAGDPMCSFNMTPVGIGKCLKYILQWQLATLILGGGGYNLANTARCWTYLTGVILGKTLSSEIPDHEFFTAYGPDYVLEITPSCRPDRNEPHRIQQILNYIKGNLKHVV
Procedure: In order to measure histone deacetylase 8 activity, Histone Deacetylase 8 Activity Assay (Sigma) was used. The HDAC8 acts with the supplied Developer to deacetylate and then cleave the HDAC8 Substrate (R-H-K(Ac)-K(Ac)-AFC). The reaction reagents were added to the wells of a 96-well plate according to Table 7. […] The fluorescence was measured with the fluorimeter plate reader: excitation wave-length of 380 nm and emission wavelength of 500 nm. The following concentrations were used: 0.5, 1, 1.5, 2, 3, and 4 µM. Each compound in each concentration was tested in triplicate. All calculations were performed using Origin 9.0 software.

A549 cells = assay: Cytotoxicity assay (SRB), 72 h; type: cell-based, human; settings: for IC50: Homo sapiens, A549, 72 h of treatment, SRB; for Selectivity index A549: IC50 of normal (BALB/3T3) vs. cancer cells (A549)
Procedure: as §1, §2
(§4) SRB: 50 µL 50% cold trichloroacetic acid (TCA, Merck) solution was added to each wells and incubated for 1 h at 4 °C. The plates were rinsed with distilled water, and after drying on a paper towel, 50 µL of a 0.1% (w/v) solution of sulforodamine B (Merck) in 1% acetic acid (POCH, Poland) was added and incubated for 30 min at room temperature. Subsequently, the plates were washed with 1% (v/v) acetic acid and after desiccation of excess acid, 150 µL of 10 mM TRIS (Merck) was added. After another 30 min of incubation at RT, the optical density of individual samples was read at 540 nm using a plate reader (Synergy H4 Hybrid Reader, BioTek).

MCF-7 cells = assay: Cytotoxicity assay (SRB), 72 h; type: cell-based, human; settings: for IC50: Homo sapiens, MCF7, 72 h of treatment, SRB; for Selectivity index MCF-7: IC50 of normal (BALB/3T3) vs. cancer cells (MCF-7)
Procedure: as §1, §2, §4

BALB/3T3 cells = assay: Cytotoxicity assay (SRB), 72 h; settings: Mus musculus, BALB/3T3, 72 h, read-out: IC50 BALB/3T3
Procedure: Then, the tested compounds were diluted in culture medium (RPMI1640 + OptiMEM) to reach the final concentrations. Then, cells were treated for 72 h with derivatives at concentrations of 50, 10, 2, 0.4, and 0.008 µM (100 μL of each concentration per well), or with culture medium alone as a cells control or medium control.

Structure (SMILES) | IC50 (Daudi cells) [µM] | IC50 (MV4-11 cells) [µM] | melting point [°C] | HDAC activity at 2 µM [%] [1] [%] | IC50 (HDAC8) [µM] | IC50 [1] | Selectivity index Daudi (Daudi cells) | Selectivity index MV4-11 (MV4-11 cells) | IC50 (A549 cells) [µM] | Selectivity index A549 (A549 cells) | IC50 (MCF-7 cells) [µM] | Selectivity index MCF-7 (MCF-7 cells) | IC50 (BALB/3T3 cells) [µM]
CN1C(=O)c2ccccc2N(CC(=O)NO)C(=O)c2ccccc21 [Compound 7a] | > 50 | > 50 | 233 to 234 | 95.6 ± 1.4 |  |  |  |  |  |  |  |  | 
CN1C(=O)c2ccccc2N(CCC(=O)NO)C(=O)c2ccccc21 [Compound 7b] | > 50 | > 50 | 105 to 106 | 84.1 ± 2.3 |  |  |  |  |  |  |  |  | 
CN1C(=O)c2ccccc2N(CCCC(=O)NO)C(=O)c2ccccc21 [Compound 7c] | > 50 | > 50 | 190 to 191 | 75.4 ± 3.0 |  |  |  |  |  |  |  |  | 
CN1C(=O)c2ccccc2N(CCCCC(=O)NO)C(=O)c2ccccc21 [Compound 7d] | 9.6 ± 2.1 | 7.58 ± 2.5 | 217 to 218 | 64.6 ± 3.6 |  |  |  |  |  |  |  |  | 
CN1C(=O)c2ccccc2N(CCCCCC(=O)NO)C(=O)c2ccccc21 [Compound 7e] | 3.03 ± 0.55 | 2.33 ± 0.64 | 155 to 156 | 48.7 ± 1.0 | 5.67 ± 0.64 | 1.96 ± 0.105 µM |  |  |  |  |  |  | 
CN1C(=O)c2ccccc2N(CCCCCCC(=O)NO)C(=O)c2ccccc21 [Compound 7f] | 4.83 ± 1.96 | 4.45 ± 0.34 | 145 to 146 | 66.1 ± 4.1 |  |  |  |  |  |  |  |  | 
O=C(CN1C(=O)c2ccccc2C=Cc2ccccc21)NO [Compound 7g] | 17.3 ± 6.2 | 34 ± 0.75 | 119 to 120 | 83.6 ± 4.2 |  |  |  |  |  |  |  |  | 
O=C(CCN1C(=O)c2ccccc2C=Cc2ccccc21)NO [Compound 7h] | 32.6 ± 4.78 | > 50 | 173 to 174 | 87.5 ± 1.2 |  |  |  |  |  |  |  |  | 
O=C(CCCN1C(=O)c2ccccc2C=Cc2ccccc21)NO [Compound 7i] | > 50 | > 50 | 172 to 173 | 90.4 ± 1.6 |  |  |  |  |  |  |  |  | 
O=C(CCCCN1C(=O)c2ccccc2C=Cc2ccccc21)NO [Compound 7j] | 3.47 ± 0.66 | 5.3 ± 1.36 | 175 to 176 | 63.3 ± 0.5 |  |  |  |  |  |  |  |  | 
O=C(CCCCCN1C(=O)c2ccccc2C=Cc2ccccc21)NO [Compound 7k] | 0.46 ± 0.122 | 0.22 ± 0.021 |  | 15.7 ± 1.3 | 3.37 ± 0.33 | 0.183 ± 0.015 µM | 2.78 | 5.82 | 1.27 ± 0.42 | 1.01 | 0.618 ± 0.095 | 2.07 | 1.28 ± 0.15
O=C(CCCCCCN1C(=O)c2ccccc2C=Cc2ccccc21)NO [Compound 7l] | 1.44 ± 0.61 | 1.57 ± 0.12 | 151 to 152 | 44.7 ± 4.4 |  | 1.24 ± 0.155 µM |  |  |  |  |  |  | 
CN1C(=O)c2ccccc2C(=O)N(CCCCCC(=O)NO)c2ccccc21 [Compound 7m] | 5.09 ± 0.3 | 4.45 ± 0.96 | 95 to 96 | 72.7 ± 5.2 |  |  |  |  |  |  |  |  | 
CN1C(=O)c2cc(Cl)c(Cl)cc2C(=O)N(CCCCCC(=O)NO)c2ccccc21 [Compound 7n] | 2.56 ± 0.98 | 2.85 ± 0.34 | 104 to 105 | 68.3 ± 2.8 |  |  |  |  |  |  |  |  | 
O=C(CCCCCN1C(=O)c2ccccc2C(=O)N(Cc2ccccc2)c2ccccc21)NO [Compound 7o] | 3.52 ± 0.8 | 3.55 ± 0.75 | 172 to 173 | 64.5 ± 2.1 |  |  |  |  |  |  |  |  | 
O=C(CCCCCN1C(=O)c2ccccc2CCc2ccccc21)NO [Compound 7p] | 0.318 ± 0.098 | 0.2 ± 0.073 | 164 to 165 | 21.5 ± 1.6 | 3.14 ± 0.42 | 0.309 ± 0.035 µM | 3.27 | 5.20 | 1.21 ± 0.24 | 0.86 | 0.661 ± 0.12 | 1.57 | 1.04 ± 0.28
CN1C(=O)c2cc(Br)ccc2N(CCCCCC(=O)NO)C(=O)c2ccccc21 [Compound 7r] | 0.785 ± 0.246 | 0.603 ± 0.132 | 76 to 77 | 31.5 ± 7.1 |  | 0.875 µM and 0.914 µM | 4.29 | 5.59 | 4.61 ± 0.38 | 0.73 | 2.72 ± 0.57 | 1.24 | 3.37 ± 0.87
COc1cc2c(cc1OC)N(CCCCCC(=O)NO)C(=O)c1ccccc1N(C)C2=O [Compound 7s] | 0.944 ± 0.167 | 0.692 ± 0.11 | 82 to 83 | 35.9 ± 0.8 |  | 0.914 µM and 0.875 µM | 12.75 | 17.4 | 18 ± 5.77 | 0.67 | 4.24 ± 1.03 | 2.84 | 12 ± 5.9
CN1C(=O)c2cc3ccccc3cc2N(CCCCCC(=O)NO)C(=O)c2cc(Cl)ccc21 [Compound 7t] | 0.137 ± 0.04 | 0.093 ± 0.009 | 161 to 162 | 19.9 ± 1.6 | 1.95 ± 0.17 | 0.266 ± 0.014 µM | 5.04 | 7.42 | 1.05 ± 0.07 | 0.66 | 0.368 ± 0.015 | 1.88 | 0.69 ± 0.05
